Data taken from patent publication EP1379634B1 (THE UNIVERSITY OF GEORGIA RESEARCH FOUNDATION, INC., priority 2001, dated 2002).
Starred links: 1 amine or outer side, 2 acyl side, 3 side chain; linkers in the order of their positions; H or OH if unused. Residues, ends and D or L forms follow the SMILES beside them. *: point of attachment. AFC = O=c1cc(C(F)(F)F)c2ccc(N*)cc2o1; Suc = O=C(CCC(=O)[*:2])[*:1]

System: T. solium purified cysteine protease
Assay: Human IgG degradation, western blot (Step IV)
Format: biochemical, Taenia solium
Details: overnight, 37°C, 18 hrs
Protocol: To conduct this assessment, a western blot was performed. IgG digestion was detected by incubating 20 ul of T. solium purified enzyme or T. […] extract with 1 ug of human IgG (Sigma, St. Louis) in a final volume of 100 ul of assay buffer. Exogenous thiol activation was assessed by incubating the assay in the presence or absence of cysteine. The catalytic class of the IgG protease was determined by pre-incubating the following proteinase inhibitors at their active concentrations, with the enzyme: E 64 (10^-6 M , cysteine proteinases), phenylmethylsulfonyl fluoride (PMSF) (10^-3 M, serine proteinases), pepstatin A (10^-6M, aspartic proteinases), and 1,10 phenanthroline (10^-3 M, metalloproteinases), and the vehicle, Mu-Leu-Tyr-AFC (10^-3 M). After addition of IgG, the assay was incubated overnight (37°C, 18 hrs). Subsequently, 100 ul of the mixture was boiled in sodium dodecyl sulfate polyacrylamide gel electrophoresis (SDS-PAGE) sample buffer with 2% 2-mercaptoethanol, separated by 12.5% SDS-PAGE, and blotted onto a polyvinylidene difluoride membrane. Tris buffered saline containing 0.1 % bovine serum albumin and 0.05% Tween 20 (TBS-BSA) was used to block nonspecific binding. […]

| Structure (SMILES) | inhibition of cleavage of human IgG |
| --- | --- |
| CC(C)CC(NC(=O)C1OC1C(=O)O)C(=O)NCCCCNC(=N)N (centres unmarked) [E64, reference compound] | Inhibition was noted |
| CC(C)C[C@H](NC(=O)CCC(=O)O)C(=O)N[C@@H](Cc1ccc(O)cc1)C(=O)Nc1ccc2c(C(F)(F)F)cc(=O)oc2c1 [suc-Leu-Tyr-AFC] (Suc-Leu-Tyr-{AFC}) | ability to inhibit |
